Test results reported in US20260265233A1, “BENZOTHIOPHENE DERIVATIVES AS RXFP1 AGONISTS” (BRISTOL-MYERS SQUIBB COMPANY, priority 2021, published 2026).

What follows are compounds tested against T1, human RXFP1 (Homo sapiens, UniProt Q9HBX9) (assay: hRXFP1 HEK293 cAMP assay (HTRF)). Details: HEK293 cells stably expressing human RXFP1; 30 min at rt; intracellular cAMP by HTRF.
T1 construct: expressed in transfected cells
T1 sequence (Q9HBX9 1-757): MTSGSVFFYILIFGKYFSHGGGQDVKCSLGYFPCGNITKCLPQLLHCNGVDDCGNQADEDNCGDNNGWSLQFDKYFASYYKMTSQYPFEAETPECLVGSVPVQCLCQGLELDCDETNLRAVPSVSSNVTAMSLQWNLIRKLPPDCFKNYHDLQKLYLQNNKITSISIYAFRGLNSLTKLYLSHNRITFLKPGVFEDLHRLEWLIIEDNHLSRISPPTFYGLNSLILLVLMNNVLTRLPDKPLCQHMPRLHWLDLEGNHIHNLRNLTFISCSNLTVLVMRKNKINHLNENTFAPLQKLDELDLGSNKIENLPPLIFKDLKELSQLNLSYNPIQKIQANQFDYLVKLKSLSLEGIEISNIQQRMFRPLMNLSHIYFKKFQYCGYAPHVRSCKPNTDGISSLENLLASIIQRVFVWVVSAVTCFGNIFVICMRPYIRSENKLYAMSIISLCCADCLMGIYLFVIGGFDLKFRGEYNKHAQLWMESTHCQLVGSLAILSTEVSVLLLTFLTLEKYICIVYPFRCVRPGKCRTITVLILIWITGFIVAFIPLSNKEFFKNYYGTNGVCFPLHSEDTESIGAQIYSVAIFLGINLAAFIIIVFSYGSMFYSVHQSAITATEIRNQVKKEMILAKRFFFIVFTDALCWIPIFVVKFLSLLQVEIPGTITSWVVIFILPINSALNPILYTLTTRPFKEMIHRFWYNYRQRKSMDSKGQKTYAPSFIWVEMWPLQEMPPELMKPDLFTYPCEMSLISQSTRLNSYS
Assay type: cell-based
Method in brief: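 HEK293 cells stably expressing human RXFP1 treated 30 min at rt with compound (0.010 nM to 50 μM, 2% DMSO) in HBSS/HEPES buffer with 0.5 mM IBMX. Intracellular cAMP measured by HTRF (665/590 nm ratio) against a cAMP standard curve; potency fitted by 4-parameter logistic.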

In order of falling EC50:
1. COc1ccc(-c2cc(C(=O)O)ccc2F)cc1C(=O)Nc1c(C(=O)Nc2ccc(F)c(C(F)(F)F)c2)sc2nc(C)ccc12 [Example 288, 6-fluoro-3′-[(2-{[4-fluoro-3-(trifluoromethyl)phenyl]carbamoyl}-6-methylthieno[2,3-b]pyridin-3-yl)carbamoyl]-4′-methoxy-[1,1′-biphenyl]-3-carboxylic acid]  4260 nM
2. COc1ncc(N2CCS(=O)(=O)CC2)cc1C(=O)Nc1c(C(=O)Nc2ccc(F)c(C(F)(F)F)c2)sc2cc(C(F)(F)F)ccc12 [Example 12, 5-(1,1-dioxidothiomorpholino)-N-(2-((4-fluoro-3-(trifluoromethyl)phenyl)carbamoyl)-6-(trifluoromethyl)benzo[b]thiophen-3-yl)-2-methoxynicotinamide]  2130 nM
3. COc1ccc(C2CCN(CC(N)=O)C2)cc1C(=O)Nc1c(C(=O)Nc2ccc(F)c(C(F)(F)F)c2)sc2cc(C(F)(F)F)ccc12 (centres unmarked) [Example 147, 3-(5-(1-(2-amino-2-oxoethyl)pyrrolidin-3-yl)-2-methoxy-benzamido)-N-(4-fluoro-3-(trifluoromethyl)phenyl)-6-(trifluoromethyl) benzo[b] thiophene-2-carboxamide]  1430 nM
4. COc1ccc(C(=O)N2CC3(COC3)C2)cc1C(=O)Nc1c(C(=O)Nc2ccc(F)c(C(F)(F)F)c2)sc2cc(C3CC3)ncc12 [Example 238, 6-cyclopropyl-N-(4-fluoro-3-(trifluoromethyl)phenyl)-3-(2-methoxy-5-(2-oxa-6-azaspiro[3.3]heptane-6-carbonyl)benzamido) thieno[3,2-c]pyridine-2-carboxamide]  1400 nM
5. COc1ccc(N2CCOC(CC(C)(C)O)C2)cc1C(=O)Nc1c(C(=O)Nc2ccc(F)c(C(F)(F)F)c2)sc2cc(C(F)(F)F)ccc12 (single isomer, unassigned) [Example 227, N-(4-fluoro-3-(trifluoromethyl)phenyl)-3-(5-(2-(2-hydroxy-2-methylpropyl)morpholino)-2-methoxy-benzamido)-6-(trifluoromethyl) benzo[b] thiophene-2-carboxamide]  1280 nM
6. COc1ccc(C2=NOC(C)(CO)C2)cc1C(=O)Nc1c(C(=O)Nc2ccc(F)c(C(F)(F)F)c2)sc2cc(C(F)(F)F)ccc12 (single isomer, unassigned) [Example 254, N-(4-fluoro-3-(trifluoromethyl)phenyl)-3-(5-(5-(hydroxymethyl)-5-methyl-4,5-dihydroisoxazol-3-yl)-2-methoxy-benzamido)-6-(trifluoromethyl) benzo[b] thiophene-2-carboxamide]  1020 nM
7. COc1ccc(/C=C\C(=O)O)cc1C(=O)Nc1c(C(=O)Nc2ccc(F)c(C(F)(F)F)c2)sc2cc(C(F)(F)F)ccc12 [Example 45, (Z)-3-(3-((2-((4-fluoro-3-(trifluoromethyl)phenyl)carbamoyl)-6-(trifluoromethyl)benzo[b]thiophen-3-yl)carbamoyl)-4-methoxyphenyl) acrylic acid]  975 nM
8. COc1cc(F)c(C(=O)N2CC[C@@H](O)C2)cc1C(=O)Nc1c(C(=O)Nc2ccc(F)c(C(F)(F)F)c2)sc2cc(C(F)(F)F)ccc12 [Example 183, (R)-N-(4-fluoro-3-(trifluoromethyl)phenyl)-3-(4-fluoro-5-(3-hydroxy-pyrrolidine-1-carbonyl)-2-methoxy-benzamido)-6-(trifluoromethyl) benzo[b] thiophene-2-carboxamide]  823 nM
9. COc1ccc(N2CCCC(C(=O)NCC(C)(C)O)C2)cc1C(=O)Nc1c(C(=O)Nc2ccc(F)c(C(F)(F)F)c2)sc2cc(C(F)(F)F)ccc12 (single isomer, unassigned) [Example 7, 1-(3-((2-((4-fluoro-3-(trifluoromethyl)phenyl)carbamoyl)-6-(trifluoromethyl)benzo[b]thiophen-3-yl)carbamoyl)-4-methoxyphenyl)-N-(2-hydroxy-2-methylpropyl) piperidine-3-carboxamide]  661 nM
10. COc1ccc(C2=NOC3CN(C(=O)OC(C)(C)C)CC23)cc1C(=O)Nc1c(C(=O)Nc2ccc(F)c(C(F)(F)F)c2)sc2cc(C(F)(F)F)ccc12 (single isomer, unassigned) [Example 245, tert-butyl 3-(3-((2-((4-fluoro-3-(trifluoromethyl)phenyl)carbamoyl)-6-(trifluoromethyl)benzo[b]thiophen-3-yl)carbamoyl)-4-methoxyphenyl)-3a,4,6,6a-tetrahydro-5H-pyrrolo[3,4-d]isoxazole-5-carboxylate]  463 nM
11. COc1ccc(C2CC2C(=O)N2CC(OC)C2)cc1C(=O)Nc1c(C(=O)Nc2ccc(F)c(C(F)(F)F)c2)sc2cc(C(F)(F)F)ccc12 (centres unmarked) [Example 167, N-[4-fluoro-3-(trifluoromethyl)phenyl]-3-{2-methoxy-5-[2-(3-methoxyazetidine-1-carbonyl)cyclopropyl]benzamido}-6-(trifluoromethyl)-1-benzothiophene-2-carboxamide]  400 nM
12. COc1ccc(C2CC3(C2)CN(C2COC2)C3)cc1C(=O)Nc1c(C(=O)Nc2ccc(F)c(C(F)(F)F)c2)sc2cc(C(F)(F)F)ccc12 [Example 106, N-(4-fluoro-3-(trifluoromethyl)phenyl)-3-(2-methoxy-5-(2-(oxetan-3-yl)-2-azaspiro[3.3]heptan-6-yl)benzamido)-6-(trifluoromethyl) benzo[b] thiophene-2-carboxamide]  248 nM
13. COC(=O)C(=O)N1CCCC(c2ccc(OC)c(C(=O)Nc3c(C(=O)Nc4ccc(F)c(C(F)(F)F)c4)sc4cc(C(F)(F)F)ccc34)c2)C1 (centres unmarked) [Example 80, methyl 2-(3-(3-((2-((4-fluoro-3-(trifluoromethyl)phenyl)carbamoyl)-6-(trifluoromethyl)benzo[b]thiophen-3-yl)carbamoyl)-4-methoxyphenyl)piperidin-1-yl)-2-oxoacetate]  237 nM
14. COc1ccc(-c2cccc(C(C)(C)O)c2)cc1C(=O)Nc1c(C(=O)Nc2ccc(F)c(C(F)(F)F)c2)sc2cc(C(F)(F)F)ccc12 [Example 120, N-(4-fluoro-3-(trifluoromethyl)phenyl)-3-(3′-(2-hydroxypropan-2-yl)-4-methoxy-[1,1′-biphenyl]-3-carboxamido)-6-(trifluoromethyl) benzo[b] thiophene-2-carboxamide]  228 nM
15. COc1ncc(C(=O)N2CC(O)C2)cc1C(=O)Nc1c(C(=O)Nc2ccc(F)c(C(F)(F)F)c2)sc2cc(C(F)(F)F)ccc12 [Example 173, N-(2-((4-fluoro-3-(trifluoromethyl)phenyl)carbamoyl)-6-(trifluoromethyl)benzo[b]thiophen-3-yl)-5-(3-hydroxyazetidine-1-carbonyl)-2-methoxy-nicotinamide]  179 nM
16. COc1cc(F)c(C#CCO)cc1C(=O)Nc1c(C(=O)Nc2ccc(F)c(C(F)(F)F)c2)sc2cc(C(F)(F)F)ccc12 [Example 110, N-(4-fluoro-3-(trifluoromethyl)phenyl)-3-(4-fluoro-5-(3-hydroxyprop-1-yn-1-yl)-2-methoxy-benzamido)-6-(trifluoromethyl) benzo[b] thiophene-2-carboxamide]  144 nM
17. COc1ccc(-c2cccc(C(=O)O)c2F)cc1C(=O)Nc1c(C(=O)Nc2ccc(F)c(C(F)(F)F)c2)sc2cc(C(F)(F)F)ccc12 [Example 14, 2-fluoro-3′-((2-((4-fluoro-3-(trifluoromethyl)phenyl)carbamoyl)-6-(trifluoromethyl)benzo[b]thiophen-3-yl)carbamoyl)-4′-methoxy-[1,1′-biphenyl]-3-carboxylic acid]  135 nM
18. COc1ccc(C2=NC(C(=O)N3CC(C)(O)C3)CO2)cc1C(=O)Nc1c(C(=O)Nc2ccc(F)c(C(F)(F)F)c2)sc2cc(C(F)(F)F)ccc12 (centres unmarked) [Example 280, N-[4-fluoro-3-(trifluoromethyl)phenyl]-3-{5-[4-(3-hydroxy-3-methylazetidine-1-carbonyl)-4,5-dihydro-1,3-oxazol-2-yl]-2-methoxy-benzamido}-6-(trifluoromethyl)-1-benzothiophene-2-carboxamide]  44.1 nM
19. N-(4-fluoro-3- (trifluoromethyl) phenyl)-3-(4- methoxy-3′- (morpholino- sulfonyl)-[1,1′- biphenyl]-3- carboxamido)- 6- (trifluoromethyl) benzo[b] thiophene-2- carboxamide [Example 122]  41.8 nM
20. COc1ccc(C2=NC(C(=O)N3CC(CO)C3)CO2)cc1C(=O)Nc1c(C(=O)Nc2ccc(F)c(C(F)(F)F)c2)sc2cc(C(F)(F)F)ccc12 (centres unmarked) [Example 282, N-[4-fluoro-3-(trifluoromethyl)phenyl]-3-(5-{4-[3-(hydroxymethyl)azetidine-1-carbonyl]-4,5-dihydro-1,3-oxazol-2-yl}-2-methoxy-benzamido)-6-(trifluoromethyl)-1-benzothiophene-2-carboxamide]  9.6 nM
